US8951938B2, “Combinatorial rosamine library to detect cell-state switching” (New York University, priority 2007, dated 2015)
“Also recorded” adds a separate entry of the source.

Columns and labels:
RNA = test: Analyte screening of rosamine library, fluorescence response
Protocol: (§1) The rosamine derivative compounds were screened toward 47 different analytes that include proteins, polysaccharides, nucleic acids, and metal ions. The stock solution of each dye (50 μL) in HEPES (20 mM, pH=7.4) or PBS (20 mM, pH=7.4) was prepared, and diluted with the each analyte (50 μL, 1.0 mg/mL or 200 μM) in the same buffer solution. The final dye concentration varied from 0.5 μM to 10 μM. The fluorescence intensity fold changes of each dye in the presence of analytes were calculated by comparing the fluorescence intensity at the maximum emission wavelength with/without the analyte.

DNA = test: as above
Protocol: as §1

SMILES | fluorescence response to RNA among 47 analytes (RNA) | fluorescence response to DNA among 47 analytes (DNA)
CC1=CC(C)(C)N(C)c2ccc3c(=O)c4ccc(N)cc4n(C)c3c21 [J] | selective response; also recorded: selective increase | –
CCN(CCCN(C)C)c1ccc2c(=O)c3ccc(N)cc3oc2c1 [L, 3-Amino-6-[(3-dimethylamino-propyl)-ethyl-amino]-xanthen-9-one] | – | selective response; also recorded: selective increase
